A value given as a limit tells only on which side of the number the result lay.

In experiment [1] the target is T1, PI3Kα (wild-type), P110/P85α (Homo sapiens, UniProt P42336).
T1 construct: made in house; host or cells: SF9 insect cells
Kind of experiment: PI3 Kinase TR-FRET assay, PI3Kα (wild-type). It is filed as biochemical. In short, it runs like this:
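Sf9-expressed His-purified P110/P85α (5 ng) preincubated 60 min RT with compound and PIP2 in buffer with 40 mM MgCl2, 5 mM DTT; reaction started with ATP (PIP2 and ATP both 10 μM), 30 min RT. PIP3 detected by TR-FRET displacement, 665/615 nm ratio; IC50 from dose-response curves.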
(In general: TR-FRET usually uses a lanthanide donor and a delayed reading to cut background.)

Another experiment has as its target T2, mTOR kinase (Homo sapiens, UniProt P42345).
T2 construct: purchased Millipore, USA
Kind of experiment: mTOR kinase TR-FRET assay. The format is biochemical. The note with it: read-out: mTO R. A digest of the protocol: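 Compounds preincubated 60 min with mTOR (5 ng) in HEPES pH 7.5, EGTA, MnCl2; ULight-p70 S6K Thr389 peptide (50 nM) and ATP (20 μM) then added, 60 min at room temperature. EDTA-stopped, Eu-anti-phospho antibody detection by TR-FRET (665/615 nm); IC50 from variable-slope sigmoidal fit.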

The subject of experiment [2] is pS6RP(S235/236), PC3 cells. Kind of experiment: In-cell Western assay, pS6RP(S235/236) in PC3 cells. The format is cell-based, human. The note with it: Homo sapiens, PC-3, In-cell Western. In short, it runs like this:
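Overnight-seeded PC3 cells were treated 2 h with serially diluted compound, then fixed and immunostained with phospho-specific primary antibodies and Eu-labelled secondary. Time-resolved Eu signal read at 615 nm (ex 340 nm), normalised by Hoechst 33258 staining (ex 355/em 460 nm); IC50 from sigmoidal dose-response fit.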

The next experiment relates to PC3 cells. As to the kind of experiment: XTT assay for cell viability, PC3 cells. Particulars: Homo sapiens, PC-3, cell viability. It is filed as cell-based, human. In short, it runs like this: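 PC3 cells seeded at 1000 cells/well, grown 24 h, then exposed to serial dilutions of compound for 96 h. Viability read by XTT dye at 37° C, absorbance 465 nm. EC50 from sigmoidal dose-response fit.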
In general terms: Tetrazolium dyes change colour on reduction, which living cells bring about.

T1 sequence (P42336 whole entry): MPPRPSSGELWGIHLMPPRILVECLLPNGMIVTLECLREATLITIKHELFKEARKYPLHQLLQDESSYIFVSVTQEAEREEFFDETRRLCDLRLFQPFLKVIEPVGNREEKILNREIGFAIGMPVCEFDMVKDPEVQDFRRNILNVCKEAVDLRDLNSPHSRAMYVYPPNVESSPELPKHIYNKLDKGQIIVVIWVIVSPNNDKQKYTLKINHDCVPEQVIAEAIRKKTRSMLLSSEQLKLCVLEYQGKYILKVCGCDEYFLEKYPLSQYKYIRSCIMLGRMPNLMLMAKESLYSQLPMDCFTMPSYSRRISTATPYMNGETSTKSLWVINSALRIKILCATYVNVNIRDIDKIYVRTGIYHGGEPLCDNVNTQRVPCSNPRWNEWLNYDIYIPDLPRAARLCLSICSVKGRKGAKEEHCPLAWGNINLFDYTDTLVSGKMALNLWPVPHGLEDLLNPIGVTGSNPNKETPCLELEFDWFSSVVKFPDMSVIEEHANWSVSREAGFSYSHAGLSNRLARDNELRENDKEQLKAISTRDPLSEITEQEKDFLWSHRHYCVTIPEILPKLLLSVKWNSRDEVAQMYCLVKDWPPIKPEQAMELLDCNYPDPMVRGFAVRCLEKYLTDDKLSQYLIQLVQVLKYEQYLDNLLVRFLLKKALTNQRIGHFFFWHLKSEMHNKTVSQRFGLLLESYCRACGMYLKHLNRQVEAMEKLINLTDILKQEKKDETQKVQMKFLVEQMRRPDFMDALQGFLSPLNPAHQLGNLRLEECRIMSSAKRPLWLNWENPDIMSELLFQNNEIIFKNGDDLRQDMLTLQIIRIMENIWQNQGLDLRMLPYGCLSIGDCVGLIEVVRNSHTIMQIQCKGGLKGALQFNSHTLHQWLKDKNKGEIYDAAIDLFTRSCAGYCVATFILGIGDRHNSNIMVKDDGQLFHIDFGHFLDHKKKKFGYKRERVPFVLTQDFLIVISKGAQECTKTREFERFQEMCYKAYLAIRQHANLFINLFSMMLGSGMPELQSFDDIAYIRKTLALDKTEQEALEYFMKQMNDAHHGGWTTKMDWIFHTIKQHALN
T1 sequence (P27986 whole entry partner): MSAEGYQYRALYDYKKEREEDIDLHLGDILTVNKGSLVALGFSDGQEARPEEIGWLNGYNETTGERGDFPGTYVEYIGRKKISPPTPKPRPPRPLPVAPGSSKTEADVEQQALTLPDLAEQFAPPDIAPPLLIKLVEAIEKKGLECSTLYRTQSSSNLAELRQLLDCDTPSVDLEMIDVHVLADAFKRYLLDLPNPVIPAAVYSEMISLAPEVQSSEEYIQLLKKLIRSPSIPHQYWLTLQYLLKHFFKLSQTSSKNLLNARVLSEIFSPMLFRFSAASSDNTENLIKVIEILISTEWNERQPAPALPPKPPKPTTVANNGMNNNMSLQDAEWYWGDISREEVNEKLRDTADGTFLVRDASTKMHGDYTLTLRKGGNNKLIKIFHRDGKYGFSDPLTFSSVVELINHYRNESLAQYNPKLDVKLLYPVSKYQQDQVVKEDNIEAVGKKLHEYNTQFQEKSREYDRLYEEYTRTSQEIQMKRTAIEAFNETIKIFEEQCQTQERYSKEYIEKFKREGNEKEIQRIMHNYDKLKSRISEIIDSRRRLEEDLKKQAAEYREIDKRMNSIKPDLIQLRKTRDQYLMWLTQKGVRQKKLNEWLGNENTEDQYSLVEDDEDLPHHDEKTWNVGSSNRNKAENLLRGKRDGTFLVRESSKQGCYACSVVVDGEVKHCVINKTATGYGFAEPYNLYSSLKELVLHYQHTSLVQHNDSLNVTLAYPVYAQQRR

In the case of `CC(=O)Nc1cncc(-c2ccc3c(N4CCOCC4)nc(-c4ccc(NC(=O)Nc5ccc(C(=O)N(C)C)cc5)cc4)nc3c2)c1` [Example 66, 4-(3-{4-[7-(5-acetylamino-pyridin-3-yl)-4-morpholin-4-yl-quinazolin-2-yl]-phenyl}-ureido)-N,N-dimethyl-benzamide], the IC50 is less than 50 nM in experiment [1], less than 50 nM at mTOR kinase, less than 100 nM in experiment [2] and 100 to 500 nM in the experiment with PC3 cells.
In the case of `CN(C)C1CCN(C(=O)c2ccc(NC(=O)Nc3ccc(-c4nc(N5CCOCC5)c5ncc(-c6cnn(C)c6)cc5n4)cc3)cc2)CC1` [Example 186, 1-(4-(4-(dimethylamino)piperidine-1-carbonyl)phenyl)-3-(4-(7-(1-methyl-1H-pyrazol-4-yl)-4-morpholino-pyrido[3,2-d]pyrimidin-2-yl)phenyl)urea], the IC50 in experiment [1] is less than 50 nM; on mTOR kinase, less than 50 nM; in experiment [2], 201 to 10000 nM; in the experiment on PC3 cells it was 201 to 10000 nM.
On to `CN(C)C(=O)c1ccc(NC(=O)Nc2ccc(-c3nc(N4CCOCC4)c4ncc(-c5ccnnc5)cc4n3)cc2)cc1` [Example 96, N,N-dimethyl-4-(3-(4-(4-morpholino-7-(pyridazin-4-yl)pyrido[3,2-d]pyrimidin-2-yl)phenyl)ureido)-benzamide], for which the IC50 was less than 50 nM in experiment [1], less than 50 nM on mTOR kinase, 201 to 10000 nM in experiment [2] and 201 to 10000 nM in the experiment on PC3 cells.
For `Cc1ccc(-c2cc3nc(-c4ccc(NC(=O)Nc5ccc(C(=O)N(C)C)cc5)cc4)nc(N4CCOCC4)c3cc2F)o1` [Example 87, 4-(3-(4-(6-fluoro-7-(5-methylfuran-2-yl)-4-morpholino-quinazolin-2-yl)phenyl)ureido)-N,N-dimethyl-benzamide], the IC50 in experiment [1] was 50 to 200 nM; on mTOR kinase, less than 50 nM; in experiment [2], less than 100 nM; in the experiment on PC3 cells, less than 100 nM.
As for `CN(C)C(=O)c1ccc(NC(=O)Nc2ccc(-c3nc(N4CCOCC4)c4ccc(-c5cccnc5F)cc4n3)cc2F)cc1` [Example 91, 4-(3-(2-fluoro-4-(7-(2-fluoropyridin-3-yl)-4-morpholino-quinazolin-2-yl)phenyl)ureido)-N,N-dimethyl-benzamide], the IC50 in experiment [1] is less than 50 nM; on mTOR kinase, less than 50 nM; in experiment [2], 201 to 10000 nM; with PC3 cells, 201 to 10000 nM.
As to `COc1ncc(-c2ccc3c(N4CCOCC4)nc(-c4ccc(NC(=O)Nc5ccc(C(=O)N(C)C)cc5)cc4F)nc3c2)cn1` [Example 242, 4-(3-(3-fluoro-4-(7-(2-methoxypyrimidin-5-yl)-4-morpholino-quinazolin-2-yl)phenyl)ureido)-N,N-dimethyl-benzamide], the IC50 in experiment [1] is less than 50 nM; at mTOR kinase, less than 50 nM; in experiment [2] it was 201 to 10000 nM; in the experiment on PC3 cells, 201 to 10000 nM.
In the case of `CC(=O)c1ccc(-c2ccc3c(N4CCOCC4)nc(-c4ccc(NC(=O)Nc5ccc(C(=O)N(C)C)cc5)cc4)nc3c2)o1` [Example 224, 4-(3-(4-(7-(5-acetylfuran-2-yl)-4-morpholino-quinazolin-2-yl)phenyl)ureido)-N,N-dimethyl-benzamide], the IC50 in experiment [1] is less than 50 nM; on mTOR kinase, less than 50 nM; in experiment [2] it was 201 to 10000 nM; with PC3 cells, 201 to 10000 nM.
Turning to `Cn1cc(-c2cnc3c(N4CCOCC4)nc(-c4ccc(NC(=O)Nc5ccc(C(N)=O)cc5)cc4)nc3c2)cn1` [Example 202, 4-(3-(4-(7-(1-methyl-1H-pyrazol-4-yl)-4-morpholino-pyrido[3,2-d]pyrimidin-2-yl)phenyl)ureido)-benzamide], the IC50 in experiment [1] was less than 50 nM; at mTOR kinase it was less than 50 nM; in experiment [2], 201 to 10000 nM; in the experiment on PC3 cells, 201 to 10000 nM.
As to `CN(C)CCN(C)C(=O)c1ccc(NC(=O)Nc2ccc(-c3nc(N4CCOCC4)c4ccc(-c5ccncc5)cc4n3)cc2)cc1` [Example 72, N-(2-dimethylamino-ethyl)-N-methyl-4-{3-[4-(4-morpholin-4-yl-7-pyridin-4-yl-quinazolin-2-yl)-phenyl]-ureido}-benzamide], the IC50 in experiment [1] is less than 50 nM; on mTOR kinase, less than 50 nM; in experiment [2], less than 100 nM; in the experiment with PC3 cells, 100 to 500 nM.
For the compound `CN(C)C1CCN(C(=O)c2ccc(NC(=O)Nc3ccc(-c4nc(N5CCOCC5)c5cc(F)c(-c6cccnc6)cc5n4)cc3)cc2)C1` (stereo in doubt) [Example 198, (S)-1-(4-(3-(dimethylamino)pyrrolidine-1-carbonyl)phenyl)-3-(4-(6-fluoro-4-morpholino-7-(pyridin-3-yl)quinazolin-2-yl)phenyl)urea], the IC50 in experiment [1] was less than 50 nM; at mTOR kinase, less than 50 nM; in experiment [2] it was 201 to 10000 nM; with PC3 cells, 201 to 10000 nM.
Turning to `CN(C)[C@@H]1CCN(C(=O)c2ccc(NC(=O)Nc3ccc(-c4nc(N5CCOCC5)c5ncc(-c6cnn(C)c6)cc5n4)cc3)cc2)C1` [Example 184, (R)-1-(4-(3-(dimethylamino)pyrrolidine-1-carbonyl)phenyl)-3-(4-(7-(1-methyl-1H-pyrazol-4-yl)-4-morpholino-pyrido[3,2-d]pyrimidin-2-yl)phenyl)urea], the IC50 in experiment [1] was less than 50 nM; at mTOR kinase, less than 50 nM; in experiment [2], 201 to 10000 nM; with PC3 cells, 201 to 10000 nM.
With `Cc1noc(C)c1-c1ccc2c(N3CCOCC3)nc(-c3ccc(NC(=O)Nc4ccc(C(=O)N(C)C)cc4)cc3)nc2c1` [Example 121, 4-(3-(4-(7-(3,5-dimethylisoxazol-4-yl)-4-morpholino-quinazolin-2-yl)phenyl)ureido)-N,N-dimethyl-benzamide], the IC50 in experiment [1] was less than 50 nM; at mTOR kinase, less than 50 nM; in experiment [2], 201 to 10000 nM; with PC3 cells, 201 to 10000 nM.
As for `CN(C)C(=O)c1ccc(NC(=O)Nc2ccc(-c3nc(N4CCOCC4)c4ncc(-c5cnn(C)c5)cc4n3)cc2)c(F)c1` [Example 134, 3-fluoro-N,N-dimethyl-4-(3-(4-(7-(1-methyl-1H-pyrazol-4-yl)-4-morpholino-pyrido[3,2-d]pyrimidin-2-yl)phenyl)ureido)-benzamide], the IC50 in experiment [1] is less than 50 nM; at mTOR kinase, less than 50 nM; in experiment [2], 201 to 10000 nM; in the experiment on PC3 cells, 201 to 10000 nM.
Take `CN(C)C(=O)c1ccc(NC(=O)Nc2ccc(-c3nc(N4CCOCC4)c4cc(F)c(-c5cccnc5F)cc4n3)cc2)cc1` [Example 107, 4-(3-(4-(6-fluoro-7-(2-fluoropyridin-3-yl)-4-morpholino-quinazolin-2-yl)phenyl)ureido)-N,N-dimethyl-benzamide]: the IC50 in experiment [1] was less than 50 nM; at mTOR kinase, less than 50 nM; in experiment [2] it was 201 to 10000 nM; in the experiment with PC3 cells, 201 to 10000 nM.
In the case of `CN(C)C1CCN(C(=O)c2ccc(NC(=O)Nc3ccc(-c4nc(N5CCOCC5)c5ncc(-c6cccnc6F)cc5n4)cc3F)cc2)C1` (stereo in doubt) [Example 213, (S)-1-(4-(3-(dimethylamino)pyrrolidine-1-carbonyl)phenyl)-3-(2-fluoro-4-(7-(2-fluoropyridin-3-yl)-4-morpholino-pyrido[3,2-d]pyrimidin-2-yl)phenyl)urea], the IC50 in experiment [1] was less than 50 nM; at mTOR kinase, less than 50 nM; in experiment [2], 201 to 10000 nM; in the experiment with PC3 cells it was 201 to 10000 nM.

For the origin of these results see patent publication US9115092B2, “Substituted quinazoline and pyrido-pyrimidine derivatives” (Asana Biosciences, LLC, priority 2010, dated 2015).
